The values that follow come from patent US20100093824A1 (priority 2006, published 2010).

The subject of data set [1] is poliovirus. On the set-up: species or system cPVR transgenic mice. The note with it: mouse, in vivo.
For data set [2], the system named is L protein, the Respiratory Syncytial virus polymerase. Type of data set: cell-based, RSV, strain A2. The following applies: Hep-2 cells, 17AAG 5 μM.
The conditions of data set [3]: mouse, in vivo, ip.
Data set [4] deals with capsid precursor P1. Type of data set: cell-based, poliovirus.
For data set [5], the system named is poliovirus. Description: microbe, parasite or virus in culture. Type of data set: cell-based, Poliovirus Mahoney type 1 strain. The note with it: Enterovirus C, HeLa S3, 7 h, read-out: IC50 of inhibition of poliovirus replication.
For data set [6], the system named is poliovirus. Nature of the data set: microbe, parasite or virus in culture. The following applies: Enterovirus C, Fibroblast, read-out: inhibition of poliovirus replication. Type of data set: cell-based, Poliovirus Mahoney type 1 strain.
The test system of data set [7] is poliovirus. Description: microbe, parasite or virus in culture. The note with it: Enterovirus C, HeLa S3, read-out: inhibition of virus production in vRNA transfected cells. Type of data set: cell-based, Poliovirus Mahoney type 1 strain.
Data set [8] concerns poliovirus. Type of data set: cell-based.

Like-named read-outs stand apart in the source and are kept apart here. Non-standard residues stand in square brackets, D forms with d. Residues, ends and D or L forms follow the SMILES beside them. Nle = CCCC[C@H](N)C(=O)O A value given as a limit tells only on which side of the number the result lay.

In the case of `C=CCNC1=C2C[C@@H](C)CC(OC)[C@H](O)[C@@H](C)/C=C(\C)C(OC(N)=O)C(OC)/C=C\C=C(/C)C(=O)NC(=CC1=O)C2=O` (stereo partly shown) [17AAG, 17-Allylamino-17-demethoxygeldanamycin], the “viral load in the CNS” value in data set [1] is given as “dramatically reduced the viral load”. Besides, the “mice with virus decreased to undetectable levels” value is given as 4 of 8 in data set [1] (2.5 mg/kg) and 5 of 8 in data set [1] (25 mg/kg). The “effect on RSV L protein” value in data set [2] is reported as “causes degradation of L protein”. Also, the “apparent toxicity to the treated animal” value in data set [3] is “did not result in any apparent toxicity”.

For `CC(=O)N[C@@H](CSC(=O)[C@]1([C@@H](O)C(C)C)NC(=O)[C@H](C)[C@@H]1O)C(=O)O` [lactacystin, Lactacystin], the “protection of P1 from GA-induced degradation” value in data set [4] is “protected P1 from degradation”.

For orientation: IC50 means the concentration that gives 50% inhibition. The term inhibition denotes the percentage by which the read-out fell short of the control. As for `COC1=C2C[C@@H](C)C[C@H](OC)[C@H](O)[C@@H](C)/C=C(\C)[C@H](OC(N)=O)[C@@H](OC)/C=C\C=C(/C)C(=O)NC(=CC1=O)C2=O` [GA, Geldanamycin], in data set [5], the IC50 came to 110 nM. Besides, the inhibition at 0.1 µM in data set [6] is above 99%. The inhibition at 2 µM in data set [7] was found to be 95%. Moreover, in data set [4], the “time in which P1 was readily degraded after treatment” value was at most 3 h. In data set [8], the “reduction in virus production” value is around 50%.

With `CCCC[C@@H](C=O)NC(=O)[C@H](CC(C)C)NC(=O)[C@H](CC(C)C)NC(C)=O` [ALLN, N-Acetyl-L-leucyl-L-leucyl-L-norleucinal] (Ac-Leu-Leu-[Nle]-aldehyde), in data set [4], the “protection of P1 from GA-induced degradation” value is reported as “protected P1 from degradation”.

Consider trichostatin A [TSA], for which the “maximal reduction in virus production” value in data set [8] is 30%.
